{"source": "patent US8138356B2", "about": "“Chemical inhibitors of inhibitors of differentiation” (Angiogeney, Inc., priority 2008, dated 2012)", "key": {"DU145 cells": {"tested_on": "DU145 cells", "assay": "Cell survival/morphology by microscopy, DU145 prostate cancer cells", "type": "cell-based, human", "details": "concentration of 1 um (FIG. 6)", "procedure": "Prostate cancer cell lines DU145 and PC3 (in 10% BCS) were obtained from American Type Culture Collection (Rockville, Md.). The cells were cultured in Ham's F12 (Gibco, Carlsbad, Calif.) medium containing 10% BCS (Hyclone, Logan, Utah) and appropriate antibiotics (pen/strep, fungizaone, and gentamycin (Invitrogen Inc., Carlsbad, Calif.). All cells were cultured at 37° C. in a fully humidified atmosphere containing 5% CO2.\nAt 50% confluence, the cells were treated with either 100 μM DMSO, 1000 mOsmol of urea+NaCL, 1 μM N-[3-(1,3-benzodioxol-5-yl)-3-(2-methoxyphenyl)propyl]-N-benzylpropanamide, 10 μM N-[3-(1,3-benzodioxol-5-yl)-3-(2-methoxyphenyl)propyl]-N-benzylpropanamide, and 100 μM N-[3-(1,3-benzodioxol-5-yl)-3-(2-methoxyphenyl)propyl]-N-benzylpropanamide, 1 μM N′-(4-isopropylphenyl)-1-benzothiophene-2-carbohydrazide, 10 μM N′-(4-isopropylphenyl)-1-benzothiophene-2-carbohydrazide, or 100 μM N′-(4-isopropylphenyl)-1-benzothiophene-2-carbohydrazide. The cell morphology and growth was monitored daily for 1 week by microscopy for changes in morphology or cell death. Apoptosis was determined by measuring caspase 3 and caspase 7 activities using the Caspase-Glo 3/7 Assay system from Promega (Madison, Wis.)."}, "Id1-E47 interaction": {"molecular_target": "T1, Id1-E47 interaction (Homo sapiens, UniProt P41134)", "T1 sequence (P41134 1-155)": "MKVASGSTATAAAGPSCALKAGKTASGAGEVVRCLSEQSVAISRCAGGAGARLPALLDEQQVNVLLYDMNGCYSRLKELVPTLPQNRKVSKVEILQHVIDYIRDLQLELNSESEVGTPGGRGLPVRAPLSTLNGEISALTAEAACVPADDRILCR", "assay": "Gel shift assay: E47 binding to MCK E-box oligonucleotide in the presence of Id1", "type": "biochemical", "procedure": "Gel shift assays were performed using the 376 small molecules identified in the in silico drug screen and peptide synthesis. The identified compounds were then dissolved in 5% DMSO to a concentration of 100 μm and reacted in binding mixtures that contained E47, Id1 and Mck. As controls, recombinant human E47 was used in a standard binding reaction that contained ^32P labeled MCK double stranded oligonucleotides containing consensus E-Box response element (MCK-5′ TTGATCCCCCCAACACCTGCTGCCTGAAGCT (SEQ ID NO. 1)) and 100 ng of Id1 was added to a standard binding reaction using E47 and p32 labeled MCK. After 30 minutes of incubation, the reaction mixtures were resolved on a 5% non-denaturing polyacrylamide gel and autoradiographed."}}}
{"smiles": "CC(C)c1ccc(NNC(=O)c2cc3ccccc3s2)cc1", "note": "[N′-(4-isopropylphenyl)-1-benzothiophene-2-carbohydrazide]", "values": [{"measurement": "survival of DU145 cells", "setting": "DU145 cells", "result": "able to induce cell death"}, {"measurement": "dose dependence of effect in the gel shift assay", "setting": "Id1-E47 interaction", "result": "dose-proportionality"}, {"measurement": "anti-Id activity in the gel shift assay (shifted band of bound E47-MCK in the presence of Id1)", "setting": "Id1-E47 interaction; compound 100 μm in 5% DMSO, E47, Id1 and MCK, 30 minutes", "result": "restore the binding between E47-MCK in the presence of Id1"}]}
